Source: the NIST ThermoML archive (doi:10.1021/je2012555)

Assays:
[1] = mn = molality of the nth substance listed, in mol/kg; conditions: 101 kPa, Liquid; for mass density: Vibrating tube method
[2] = cn = amount concentration of the nth substance listed, in mol/dm3; conditions: 298.15 K, 101 kPa, Liquid, Vibrating tube method

CNC(=O)CNC(C)=O [2-acetamido-N-methylacetamide] + O
[1]
Conditions	apparent molar heat capacity [J/K/mol]	mass density [kg/m3]
298.15 K, m1 = 0.04565	–	998.056
298.15 K, m1 = 0.0479	328.9	–
298.15 K, m1 = 0.05924	–	998.352
298.15 K, m1 = 0.0715	328.6	–
298.15 K, m1 = 0.07804	–	998.754
298.15 K, m1 = 0.09293	–	999.062
298.15 K, m1 = 0.0958	327.8	–
298.15 K, m1 = 0.0987	–	999.177
298.15 K, m1 = 0.1439	326	–
298.15 K, m1 = 0.153	–	1000.32
298.15 K, m1 = 0.1615	–	1000.5
298.15 K, m1 = 0.1766	–	1000.79
298.15 K, m1 = 0.1889	–	1001.04
298.15 K, m1 = 0.1912	324	–
303.15 K, m1 = 0.0479	334.9	–
303.15 K, m1 = 0.0715	336.1	–
303.15 K, m1 = 0.0958	334.3	–
303.15 K, m1 = 0.1439	333.6	–
303.15 K, m1 = 0.1912	330.6	–
308.15 K, m1 = 0.0479	343	–
308.15 K, m1 = 0.0715	343.3	–
308.15 K, m1 = 0.0958	342.7	–
308.15 K, m1 = 0.1439	343.1	–
308.15 K, m1 = 0.1912	342.7	–
313.15 K, m1 = 0.0479	349.6	–
313.15 K, m1 = 0.0715	350	–
313.15 K, m1 = 0.0958	349.6	–
313.15 K, m1 = 0.1439	350.6	–
313.15 K, m1 = 0.1912	350.9	–
318.15 K, m1 = 0.0479	357	–
318.15 K, m1 = 0.0715	358.4	–
318.15 K, m1 = 0.0958	359.1	–
318.15 K, m1 = 0.1439	358.2	–
318.15 K, m1 = 0.1912	360	–
323.15 K, m1 = 0.0479	360.1	–
323.15 K, m1 = 0.0715	361.7	–
323.15 K, m1 = 0.0958	361.6	–
323.15 K, m1 = 0.1439	361.4	–
323.15 K, m1 = 0.1912	363	–
328.15 K, m1 = 0.0479	365.8	–
328.15 K, m1 = 0.0715	366.7	–
328.15 K, m1 = 0.0958	367.2	–
328.15 K, m1 = 0.1439	369.7	–
328.15 K, m1 = 0.1912	369.1	–

CNC(=O)[C@H](CC(C)C)NC(C)=O [(S)-2-acetamido-N,4-dimethylpentanamide] + O
[1]
Conditions	apparent molar heat capacity [J/K/mol]	mass density [kg/m3]
298.15 K, m1 = 0.0463	681	–
298.15 K, m1 = 0.04684	–	997.65
298.15 K, m1 = 0.0559	682.8	–
298.15 K, m1 = 0.07	682.5	–
298.15 K, m1 = 0.08312	–	998.122
298.15 K, m1 = 0.0936	680.2	–
298.15 K, m1 = 0.09402	–	998.23
298.15 K, m1 = 0.1007	–	998.343
298.15 K, m1 = 0.108	–	998.407
298.15 K, m1 = 0.1129	680	–
298.15 K, m1 = 0.1157	–	998.565
298.15 K, m1 = 0.13	–	998.75
298.15 K, m1 = 0.1414	–	998.921
298.15 K, m1 = 0.1423	681.9	–
298.15 K, m1 = 0.1613	–	999.112
303.15 K, m1 = 0.0463	683.5	–
303.15 K, m1 = 0.0559	684.7	–
303.15 K, m1 = 0.07	684.3	–
303.15 K, m1 = 0.0936	682.6	–
303.15 K, m1 = 0.1129	682.2	–
303.15 K, m1 = 0.1423	684.4	–
308.15 K, m1 = 0.0463	687.5	–
308.15 K, m1 = 0.0559	688.6	–
308.15 K, m1 = 0.07	687.3	–
308.15 K, m1 = 0.0936	688.3	–
308.15 K, m1 = 0.1129	686.7	–
308.15 K, m1 = 0.1423	687.4	–
313.15 K, m1 = 0.0463	690.1	–
313.15 K, m1 = 0.0559	691.3	–
313.15 K, m1 = 0.07	690.9	–
313.15 K, m1 = 0.0936	690.3	–
313.15 K, m1 = 0.1129	689.6	–
313.15 K, m1 = 0.1423	691.1	–
318.15 K, m1 = 0.0463	691.6	–
318.15 K, m1 = 0.0559	692.3	–
318.15 K, m1 = 0.07	692.3	–
318.15 K, m1 = 0.0936	691.5	–
318.15 K, m1 = 0.1129	691.7	–
318.15 K, m1 = 0.1423	692.4	–
323.15 K, m1 = 0.0463	693.1	–
323.15 K, m1 = 0.0559	694.7	–
323.15 K, m1 = 0.07	694.8	–
323.15 K, m1 = 0.0936	693.4	–
323.15 K, m1 = 0.1129	693.6	–
323.15 K, m1 = 0.1423	694.8	–
328.15 K, m1 = 0.0463	695.9	–
328.15 K, m1 = 0.0559	696.8	–
328.15 K, m1 = 0.07	696.9	–
328.15 K, m1 = 0.0936	695.8	–
328.15 K, m1 = 0.1129	697.5	–
328.15 K, m1 = 0.1423	696.4	–

CNC(=O)[C@H](C)NC(C)=O [(S)-2-acetamido-N-methylpropanamide] + O
[1]
Conditions	apparent molar heat capacity [J/K/mol]	mass density [kg/m3]
298.15 K, m1 = 0.02067	–	997.447
298.15 K, m1 = 0.04272	–	997.844
298.15 K, m1 = 0.0448	431	–
298.15 K, m1 = 0.0545	429.7	–
298.15 K, m1 = 0.0683	431.5	–
298.15 K, m1 = 0.0751	–	998.437
298.15 K, m1 = 0.0909	429.6	–
298.15 K, m1 = 0.1031	–	998.944
298.15 K, m1 = 0.1226	–	999.278
298.15 K, m1 = 0.1376	427.5	–
298.15 K, m1 = 0.1431	–	999.644
298.15 K, m1 = 0.1816	–	1000.36
303.15 K, m1 = 0.0448	436.8	–
303.15 K, m1 = 0.0545	437.5	–
303.15 K, m1 = 0.0683	437.5	–
303.15 K, m1 = 0.0909	437	–
303.15 K, m1 = 0.1376	434.7	–
308.15 K, m1 = 0.0448	444	–
308.15 K, m1 = 0.0545	444.1	–
308.15 K, m1 = 0.0683	442.3	–
308.15 K, m1 = 0.0909	442.9	–
308.15 K, m1 = 0.1376	442.4	–
313.15 K, m1 = 0.0448	448	–
313.15 K, m1 = 0.0545	447.7	–
313.15 K, m1 = 0.0683	450.6	–
313.15 K, m1 = 0.0909	450.6	–
313.15 K, m1 = 0.1376	448.4	–
318.15 K, m1 = 0.0448	453.6	–
318.15 K, m1 = 0.0545	453.6	–
318.15 K, m1 = 0.0683	453.3	–
318.15 K, m1 = 0.0909	453.9	–
318.15 K, m1 = 0.1376	453.5	–
323.15 K, m1 = 0.0448	457.5	–
323.15 K, m1 = 0.0545	458.3	–
323.15 K, m1 = 0.0683	457.3	–
323.15 K, m1 = 0.0909	458.2	–
323.15 K, m1 = 0.1376	458	–
328.15 K, m1 = 0.0448	459.8	–
328.15 K, m1 = 0.0545	462.9	–
328.15 K, m1 = 0.0683	462.4	–
328.15 K, m1 = 0.0909	461.2	–
328.15 K, m1 = 0.1376	461.5	–

CNC(=O)[C@H](Cc1cnc[nH]1)NC(C)=O [N-acetyl-N'-methyl-L-alpha-histidinamide] + O
apparent molar heat capacity [J/K/mol], [1]
Conditions	m1 = 0.0546	m1 = 0.0551	m1 = 0.0616	m1 = 0.0777	m1 = 0.091	m1 = 0.109	m1 = 0.1358	m1 = 0.137
298.15 K	595.6	594.5	600.5	595.1	596.7	598.8	598.5	597.9
303.15 K	606.8	610.2	612	609.8	608.7	610.9	612.6	608
308.15 K	621.8	618.1	620.9	621.4	619.4	622.5	621	624.6
313.15 K	634	628.9	631.6	629.5	635.5	630.5	637.1	631.6
318.15 K	640.4	637	642.3	638	640.8	637.5	638.9	643.6
323.15 K	648.2	652	651.7	648.2	646.7	654	650.6	650.9
328.15 K	657.3	659.5	657	656.4	656.4	660.5	660	656

[2]
Conditions	mass density [kg/m3]
c1 = 0.03827	998.76
c1 = 0.04755	999.201
c1 = 0.04924	999.284
c1 = 0.05453	999.47
c1 = 0.05796	999.649
c1 = 0.06518	999.989
c1 = 0.0682	1000.14
c1 = 0.07517	1000.41
c1 = 0.07826	1000.59
c1 = 0.09152	1001.16
c1 = 0.0919	1001.16
c1 = 0.09948	1001.49
c1 = 0.1126	1002.02
c1 = 0.1188	1002.28
